Data as given in publication PMC10250385, “Pregnane X receptor agonist nomilin extends lifespan and healthspan in preclinical models through detoxification functions” (Nature Communications, 2023).

Columns and labels:
[1] = molecular target: T1, human pregnane X receptor (hPXR) (Homo sapiens, UniProt O75469); test: TR-FRET competitive binding assay (LanthaScreen PXR); also activates hPXR in reporter assay; design: gene NR1I2; hPXR-LBD-GST
T1 sequence (O75469 130-434 limits assumed): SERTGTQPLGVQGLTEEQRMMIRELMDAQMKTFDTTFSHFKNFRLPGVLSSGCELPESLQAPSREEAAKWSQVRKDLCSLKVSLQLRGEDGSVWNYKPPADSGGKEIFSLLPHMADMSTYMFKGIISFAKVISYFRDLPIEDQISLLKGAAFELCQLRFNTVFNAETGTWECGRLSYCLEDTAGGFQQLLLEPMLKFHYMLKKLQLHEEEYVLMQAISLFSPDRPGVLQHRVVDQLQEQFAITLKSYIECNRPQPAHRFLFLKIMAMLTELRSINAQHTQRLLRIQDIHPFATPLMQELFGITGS

[2] = molecular target: T1, human pregnane X receptor (hPXR); test: biochemical; design: gene NR1I2
[3] = molecular target: the molecule itself; test: crystal structure; hPXR^LBD-NCOA1^676–700 co-crystallised with nomilin (1 mM), sitting drop vapour diffusion at 4 °C, 10% (v/v) 2-propanol, 100 mM imidazole/HCl pH 8.0; 2.1 Å; the homodimer is also said to form in the purification (SEC in 150 mM NaCl, 20 mM HEPES, 1 mM TCEP)
[4] = molecular target: T2, ligand-binding domain (LBD) of human pregnane X receptor (hPXR), residues 130–432 (human, UniProt O75469-1 130-432); test: as above; conditions: both partners purified
T2 construct: In the crystal it stood on one chain with the NCOA1 peptide, joined by the spacer SSSGGT: see m1; also called hPXR LBD; hPXR^LBD; source: Sf9 (recombinant baculovirus), purified, as part of the fusion protein m1
T2 sequence (looked up): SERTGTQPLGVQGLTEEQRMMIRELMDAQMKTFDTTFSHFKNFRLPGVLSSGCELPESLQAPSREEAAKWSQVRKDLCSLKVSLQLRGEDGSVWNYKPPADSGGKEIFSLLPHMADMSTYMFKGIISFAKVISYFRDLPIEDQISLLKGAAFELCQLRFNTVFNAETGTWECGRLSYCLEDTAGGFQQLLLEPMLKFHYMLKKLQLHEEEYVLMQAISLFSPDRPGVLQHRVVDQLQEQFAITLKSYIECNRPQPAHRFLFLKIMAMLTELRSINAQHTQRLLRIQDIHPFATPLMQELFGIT

## CC1(C)OC(=O)C[C@H](O)[C@]2(C)[C@H]3CC[C@@]4(C)[C@H](c5ccoc5)OC(=O)[C@H]5O[C@]54[C@]3(C)C(=O)C[C@@H]12 [deacetylnomilin]
[1]
  IC50: 22.7 µM

## CC(=O)O[C@H]1CC(=O)OC(C)(C)[C@@H]2CC(=O)[C@]3(C)[C@H](CC[C@@]4(C)[C@H](c5ccoc5)OC(=O)[C@H]5O[C@]543)[C@@]12C [nomilin]
[2]
  IC50: 5.8 µM

B1: hPXR^LBD-NCOA1^676–700 fusion protein (other)
chain: SERTGTQPLGVQGLTEEQRMMIRELMDAQMKTFDTTFSHFKNFRLPGVLSSGCELPESLQAPSREEAAKWSQVRKDLCSLKVSLQLRGEDGSVWNYKPPADSGGKEIFSLLPHMADMSTYMFKGIISFAKVISYFRDLPIEDQISLLKGAAFELCQLRFNTVFNAETGTWECGRLSYCLEDTAGGFQQLLLEPMLKFHYMLKKLQLHEEEYVLMQAISLFSPDRPGVLQHRVVDQLQEQFAITLKSYIECNRPQPAHRFLFLKIMAMLTELRSINAQHTQRLLRIQDIHPFATPLMQELFGITSSSGGTCPSSHSSLTERHKILHRLLQEGSPS
notes: spacer -Ser-Ser-Ser-Gly-Gly-Thr- between the hPXR LBD and the NCOA1 peptide; A TEV protease recognition site stood between the NCOA1 peptide and the His6 tag; Crystallised with nomilin in the ligand pocket; also called hPXR chimera; source: Sf9 (recombinant baculovirus), purified (Talon IMAC, TEV cleavage, second IMAC, SEC on Superdex 200 Increase); not shown: His6, C-terminal, cleaved
[3]
  stoichiometry N: 2

B2: nuclear receptor coactivator 1 residues 676–700 (NCOA1^676–700) (peptide, UniProt Q15788-1 676-700, looked up)
peptide: CPSSHSSLTERHKILHRLLQEGSPS
notes: In the crystal it stood on one chain with the hPXR LBD, joined to its C-terminus by the spacer SSSGGT: see m1; source: Sf9 (recombinant baculovirus), purified, as part of the fusion protein m1; not shown: His6, C-terminal, cleaved
[4]
  binding result: binds
